This assay has as its target human NaV 1.8 (Homo sapiens, UniProt Q9Y5Y9). Nature of the assay: E-VIPR assay detecting and measuring NaV inhibition properties. In kind it is cell-based. The conditions noted are these: HEK cells expressing truncated human NaV 1.8. The method, boiled down:
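Membrane potential was followed by coumarin/oxonol FRET during electrical field stimulation of matrigel-seeded HEK cells carrying truncated human NaV1.8 plus KIR2.1. Dosing used 11 points, 3-fold steps, top 300 nM final, 0.625% DMSO, with or without 25% human serum.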

[1] abbreviates: no human serum, read-out: IC50 in the E-VIPR Assay.
Setting [2] is: in the presence of human serum (compound numbers followed by *), read-out: IC50 in the E-VIPR Assay, performed in the presence of human serum.

Read-outs that look alike come from different tables or passages of the source.

Chain of human NaV 1.8 (Q9Y5Y9 126-399 limits assumed): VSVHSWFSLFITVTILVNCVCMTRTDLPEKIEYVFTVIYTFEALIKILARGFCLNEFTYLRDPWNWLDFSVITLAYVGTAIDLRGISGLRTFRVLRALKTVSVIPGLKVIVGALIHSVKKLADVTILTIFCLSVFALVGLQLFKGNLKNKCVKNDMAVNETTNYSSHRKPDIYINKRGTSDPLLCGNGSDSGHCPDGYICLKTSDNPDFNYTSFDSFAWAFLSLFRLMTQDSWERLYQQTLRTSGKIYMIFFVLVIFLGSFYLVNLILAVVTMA
Chain of human NaV 1.8 (Q9Y5Y9 660-890 limits assumed): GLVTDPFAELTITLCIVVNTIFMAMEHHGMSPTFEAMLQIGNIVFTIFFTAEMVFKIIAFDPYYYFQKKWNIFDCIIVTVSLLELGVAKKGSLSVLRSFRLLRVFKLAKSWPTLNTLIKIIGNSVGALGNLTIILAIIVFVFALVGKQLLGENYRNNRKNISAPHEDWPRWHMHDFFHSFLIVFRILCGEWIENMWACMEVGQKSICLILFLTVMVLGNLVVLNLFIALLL
Chain of human NaV 1.8 (Q9Y5Y9 1148-1722 limits assumed): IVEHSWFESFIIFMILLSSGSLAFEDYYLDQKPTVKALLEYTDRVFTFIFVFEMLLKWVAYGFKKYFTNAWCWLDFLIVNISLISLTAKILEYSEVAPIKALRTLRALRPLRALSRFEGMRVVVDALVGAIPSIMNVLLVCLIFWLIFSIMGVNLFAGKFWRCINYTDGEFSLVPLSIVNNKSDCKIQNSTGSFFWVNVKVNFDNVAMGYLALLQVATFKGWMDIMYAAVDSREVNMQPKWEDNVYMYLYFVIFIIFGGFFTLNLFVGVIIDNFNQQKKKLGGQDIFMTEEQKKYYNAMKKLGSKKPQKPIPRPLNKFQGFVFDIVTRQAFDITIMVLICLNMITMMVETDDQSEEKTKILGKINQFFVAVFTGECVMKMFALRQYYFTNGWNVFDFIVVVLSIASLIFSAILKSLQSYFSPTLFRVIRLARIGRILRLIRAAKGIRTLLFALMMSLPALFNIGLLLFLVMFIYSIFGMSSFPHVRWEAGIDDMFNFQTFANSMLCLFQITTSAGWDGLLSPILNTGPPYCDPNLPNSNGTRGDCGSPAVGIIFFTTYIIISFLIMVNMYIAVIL

`COc1c([C@H]2[C@H](C(=O)Nc3ccc(C(N)=O)nc3)O[C@@](C)(C(F)(F)F)[C@H]2C)ccc(F)c1C(F)F` (stereo in doubt) [Compound 168, rel-5-((2R,3S,4S,5R)-3-(3-(difluoromethyl)-4-fluoro-2-methoxyphenyl)-4,5-dimethyl-5-(trifluoromethyl)tetrahydrofuran-2-carboxamido)picolinamide]: the 50% inhibitory concentration (IC50) (commonly the concentration at which inhibition is half-maximal) under setting [1] is < 10 nM.
As to `C[C@H]1[C@@H](c2ccc(F)c(F)c2OCCN2CC3(COC3)C2)[C@H](C(=O)Nc2ccc3nncn3c2)O[C@@]1(C)C(F)(F)F` [Compound 620, (2R,3S,4S,5R)-3-(2-(2-(2-oxa-6-azaspiro[3.3]heptan-6-yl)ethoxy)-3,4-difluorophenyl)-N-([1,2,4]triazolo[4,3-a]pyridin-6-yl)-4,5-dimethyl-5-(trifluoromethyl)tetrahydrofuran-2-carboxamide], the IC50 under setting [1] lay within 10 to 100 nM.
With `COc1c(C2C(C(=O)Nc3ccnc(S(C)(=O)=O)c3)OC(C)(C(F)(F)F)C2C)ccc(F)c1F` (single isomer, unassigned) [Compound 49, 3-(3,4-difluoro-2-methoxy-phenyl)-4,5-dimethyl-N-(2-methylsulfonyl-4-pyridyl)-5-(trifluoromethyl)tetrahydrofuran-2-carboxamide], under setting [2], the IC50 was ≥ 1000 nM.
`CNS(=O)(=O)c1cc(NC(=O)C2OC(C)(C(F)(F)F)C(C)C2c2ccc(F)c(F)c2OC)ccn1` (single isomer, unassigned) [Compound 455, 3-(3,4-difluoro-2-methoxy-phenyl)-4,5-dimethyl-N-[2-(methylsulfamoyl)-4-pyridyl]-5-(trifluoromethyl)tetrahydrofuran-2-carboxamide]: the IC50 under setting [1] fell in the range of 100 to 1000 nM.
In the case of `COc1c([C@H]2[C@H](C(=O)Nc3ccc4ncn(C)c4c3)O[C@@](C)(C(F)(F)F)[C@H]2C)ccc(F)c1F` [Compound 185, (2R,3S,4S,5R)-3-(3,4-difluoro-2-methoxyphenyl)-4,5-dimethyl-N-(1-methyl-1H-benzo[d]imidazol-6-yl)-5-(trifluoromethyl)tetrahydrofuran-2-carboxamide], the concentration for half-maximal inhibition (IC50) under setting [2] was ≥ 1000 nM.
As to `CCOc1c([C@H]2[C@H](C(=O)Nc3ccn(C)c(=O)c3)O[C@@](C)(C(F)(F)F)[C@H]2C)ccc(F)c1F` (stereo in doubt) [Compound 101, rac-(2R,3S,4S,5R)-3-(2-ethoxy-3,4-difluorophenyl)-4,5-dimethyl-N-(1-methyl-2-oxo-1,2-dihydropyridin-4-yl)-5-(trifluoromethyl)tetrahydrofuran-2-carboxamide], under setting [1], the IC50 was < 10 nM.
The same measure, in the same setting: as for `COc1c([C@H]2[C@H](C(=O)Nc3ccnc(N4CCCN(C)CC4=O)c3)O[C@@](C)(C(F)(F)F)[C@H]2C)ccc(F)c1F` [Compound 467, (2R,3S,4S,5R)-3-(3,4-difluoro-2-methoxyphenyl)-4,5-dimethyl-N-(2-(4-methyl-2-oxo-1,4-diazepan-1-yl)pyridin-4-yl)-5-(trifluoromethyl)tetrahydrofuran-2-carboxamide], the figure is 10 to 100 nM; as for `COc1c([C@H]2[C@H](C(=O)Nc3ccc(C(N)=O)nc3)O[C@@](C)(C(F)(F)F)[C@H]2C)cc(O)c(F)c1F` [Compound 733, 5-((2R,3S,4S,5R)-3-(3,4-difluoro-5-hydroxy-2-methoxyphenyl)-4,5-dimethyl-5-(trifluoromethyl)tetrahydrofuran-2-carboxamido)picolinamide], < 10 nM; as for `Cc1nn(C(F)F)cc1NC(=O)[C@@H]1O[C@@](C)(C(F)(F)F)[C@@H](C)[C@H]1c1ccc(F)c(F)c1CN(C)C1CCOCC1` [Compound 669, (2R,3S,4S,5R)-3-(3,4-difluoro-2-((methyl(tetrahydro-2H-pyran-4-yl)amino)methyl)phenyl)-N-(1-(difluoromethyl)-3-methyl-1H-pyrazol-4-yl)-4,5-dimethyl-5-(trifluoromethyl)tetrahydrofuran-2-carboxamide], 10 to 100 nM.
With `COCC(N)c1cc(NC(=O)[C@@H]2O[C@@](C)(C(F)(F)F)[C@@H](C)[C@H]2c2ccc(F)c(F)c2OC)ncn1` (single isomer, unassigned) [Compound 217], the concentration for half-maximal inhibition (IC50) under setting [1] is 10 to 100 nM.

The record behind these values is patent US20240368135A1 (VERTEX PHARMACEUTICALS INCORPORATED, priority 2021, published 2024).
